The source of these data is ChEMBL document CHEMBL2074246, “Distinct groups of multidrug resistance modulating agents are distinguished by competition of P-glycoprotein-specific antibodies” (Biochem Biophys Res Commun, 2004).

Molecules are shown by their SMILES. *1 amine or outer side, *2 acyl side, *3 side chain or, on linkers, in order; H or OH if unused. Where a SMILES comes first, the peptide text is derived from it. Bridges are numbered along the chain shown (N, C = ends). Roman numbers before positions name the chains, in order. [ ]: non-standard residue; d: D form. The star is where a group is joined. Actinocin(9to1) = Cc1c2oc3c(C)ccc(C(=O)[*:1])c3nc-2c(C(=O)[*:2])c(N)c1=O; NMeV = CN[C@H](C(=O)O)C(C)C; NHCH2CH2OH = OCCN*; Sar = CNCC(=O)O; For = O=C*

Common to all, as to format: functional, cell-based
The target of series [1] is T1, ATP-dependent translocase ABCB1 (Homo sapiens, UniProt P08183). As to the kind of experiment: TP_TRANSPORTER: increase in Calcein-AM intracellular accumulation (Calcein-AM: 0.5uM, Nonidet P-40:6x10-4a%) in MDR1-expressing NIH-3T3 cells. Conditions: mouse, nih3t3.
T1 sequence (P08183 whole entry): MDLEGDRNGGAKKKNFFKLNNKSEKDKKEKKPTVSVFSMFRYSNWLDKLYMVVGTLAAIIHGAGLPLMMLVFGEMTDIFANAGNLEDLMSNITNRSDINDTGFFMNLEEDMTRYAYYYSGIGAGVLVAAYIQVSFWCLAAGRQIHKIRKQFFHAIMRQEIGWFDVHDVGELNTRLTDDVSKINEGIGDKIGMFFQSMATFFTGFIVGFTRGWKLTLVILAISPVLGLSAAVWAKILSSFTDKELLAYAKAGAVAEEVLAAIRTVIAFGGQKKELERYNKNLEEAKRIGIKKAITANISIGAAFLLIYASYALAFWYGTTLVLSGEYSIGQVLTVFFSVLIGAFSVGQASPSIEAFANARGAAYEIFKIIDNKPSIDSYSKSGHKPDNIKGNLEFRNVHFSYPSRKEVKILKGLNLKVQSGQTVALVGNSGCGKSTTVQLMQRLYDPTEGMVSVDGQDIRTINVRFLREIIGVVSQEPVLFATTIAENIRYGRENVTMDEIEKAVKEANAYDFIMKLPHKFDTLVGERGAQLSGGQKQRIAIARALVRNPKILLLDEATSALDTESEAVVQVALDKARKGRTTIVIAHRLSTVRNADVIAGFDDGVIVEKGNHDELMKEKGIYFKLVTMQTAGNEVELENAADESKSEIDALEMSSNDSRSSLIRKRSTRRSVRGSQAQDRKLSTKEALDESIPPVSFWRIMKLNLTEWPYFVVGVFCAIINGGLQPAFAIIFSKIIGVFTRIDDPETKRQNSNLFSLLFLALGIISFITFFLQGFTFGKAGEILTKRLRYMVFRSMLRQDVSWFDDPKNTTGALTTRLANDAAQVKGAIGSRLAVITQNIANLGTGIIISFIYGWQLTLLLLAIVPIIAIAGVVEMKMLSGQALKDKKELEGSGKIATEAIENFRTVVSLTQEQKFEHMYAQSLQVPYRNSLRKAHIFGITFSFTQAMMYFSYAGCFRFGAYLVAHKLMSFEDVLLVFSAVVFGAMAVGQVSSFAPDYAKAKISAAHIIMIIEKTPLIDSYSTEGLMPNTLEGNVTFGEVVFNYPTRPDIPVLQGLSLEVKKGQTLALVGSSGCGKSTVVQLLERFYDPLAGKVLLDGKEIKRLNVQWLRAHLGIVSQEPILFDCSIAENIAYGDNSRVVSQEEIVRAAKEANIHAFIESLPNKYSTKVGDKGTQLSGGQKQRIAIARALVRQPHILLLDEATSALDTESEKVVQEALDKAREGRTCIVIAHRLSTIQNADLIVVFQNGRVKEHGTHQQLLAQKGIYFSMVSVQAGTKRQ
Series [2] concerns the target T1, ATP-dependent translocase ABCB1. As to the kind of experiment: TP_TRANSPORTER: increase in Calcein-AM intracellular accumulation (Calcein-AM: 0.5 uM, Hoechst 33342: 50 uM) in MDR1-expressing NIH-3T3 cells. To be noted: mouse, nih3t3, 50 µM.
Series [3] shares this target. As to the kind of experiment: TP_TRANSPORTER: increase in Calcein-AM intracellular accumulation (Calcein-AM: 0.5 uM, m-Amsacrine: 5 uM) in MDR1-expressing NIH-3T3 cells. To be noted: mouse, nih3t3, 5 µM.
Series [4] shares this target. As to the kind of experiment: TP_TRANSPORTER: increase in Calcein-AM intracellular accumulation (Calcein-AM: 0.5 uM, Benzocaine: 20 uM) in MDR1-expressing NIH-3T3 cells. To be noted: mouse, nih3t3, 20 µM.
The target is the same in series [5]. As to the kind of experiment: TP_TRANSPORTER: increase in Calcein-AM intracellular accumulation (Calcein-AM: 0.5 uM, Colchicine: 100 uM) in MDR1-expressing NIH-3T3 cells. Conditions: mouse, nih3t3, 100 µM.
For series [6] the target is unchanged. The series is described as follows: TP_TRANSPORTER: increase in Calcein-AM intracellular accumulation (Calcein-AM: 0.5 uM, Actinomycin D: 40 uM) in MDR1-expressing NIH-3T3 cells. To be noted: mouse, nih3t3, 40 µM.
The target is the same in series [7]. The series is described as follows: TP_TRANSPORTER: increase in Calcein-AM intracellular accumulation (Calcein-AM: 0.5 uM, Desipramine: 20 uM) in MDR1-expressing NIH-3T3 cells. To be noted: mouse, nih3t3, 20 µM.
For series [8] the target is unchanged. As to the kind of experiment: TP_TRANSPORTER: increase in Calcein-AM intracellular accumulation (Calcein-AM: 0.5 uM, Galangin: 50 uM) in MDR1-expressing NIH-3T3 cells. To be noted: mouse, nih3t3, 50 µM.
Series [9] has the same target. The series is described as follows: TP_TRANSPORTER: increase in Calcein-AM intracellular accumulation (Calcein-AM: 0.5 uM, Genistein: 40 uM) in MDR1-expressing NIH-3T3 cells. Conditions: mouse, nih3t3, 40 µM.
Series [10] has the same target. As to the kind of experiment: TP_TRANSPORTER: increase in Calcein-AM intracellular accumulation (Calcein-AM: 0.5 uM, Gramicidin D: 10 uM) in MDR1-expressing NIH-3T3 cells. To be noted: mouse, nih3t3, 10 µM.
Series [11] has the same target. As to the kind of experiment: TP_TRANSPORTER: increase in Calcein-AM intracellular accumulation (Calcein-AM: 0.5 uM, Haloperidol: 80 uM) in MDR1-expressing NIH-3T3 cells. Conditions: mouse, nih3t3, 80 µM.
Series [12] shares this target. The series is described as follows: TP_TRANSPORTER: increase in Calcein-AM intracellular accumulation (Calcein-AM: 0.5 uM, Imipramine: 20 uM) in MDR1-expressing NIH-3T3 cells. To be noted: mouse, nih3t3, 20 µM.
The target is the same in series [13]. The series is described as follows: TP_TRANSPORTER: increase in Calcein-AM intracellular accumulation (Calcein-AM: 0.5 uM, Lidocaine: 20 uM) in MDR1-expressing NIH-3T3 cells. To be noted: mouse, nih3t3, 20 µM.
Series [14] has the same target. As to the kind of experiment: TP_TRANSPORTER: increase in Calcein-AM intracellular accumulation (Calcein-AM: 0.5 uM, Mibefradil: 18 uM) in MDR1-expressing NIH-3T3 cells. To be noted: mouse, nih3t3, 18 µM.
Series [15] has the same target. As to the kind of experiment: TP_TRANSPORTER: increase in Calcein-AM intracellular accumulation (Calcein-AM: 0.5 uM, Mitomycin C: 20 uM) in MDR1-expressing NIH-3T3 cells. To be noted: mouse, nih3t3, 20 µM.

On to `CC(C)(C)CC(C)(C)c1ccc(OCCOCCO)cc1`, for which the Activity result in series [1] is “inhibitor [+]”.
On to `CCOc1ccc(-c2nc3cc(-c4nc5cc(N6CCN(C)CC6)ccc5[nH]4)ccc3[nH]2)cc1`, for which the Activity result in [2] is “is not an inhibitor [-]”.
As to `COc1cc(NS(C)(=O)=O)ccc1Nc1c2ccccc2nc2ccccc12` [AMSACRINE], in series [3], the Activity entry is “inhibitor [+]”.
On to `CCOC(=O)c1ccc(N)cc1` [BENZOCAINE], for which the Activity result in series [4] was “inhibitor [+]”.
Consider `COc1cc2c(c(OC)c1OC)-c1ccc(OC)c(=O)cc1[C@@H](NC(C)=O)CC2` [COLCHICINE], for which the Activity entry in series [5] was “is not an inhibitor [-]”.
With `Cc1c2oc3c(C)ccc(C(=O)N[C@@H]4C(=O)N[C@H](C(C)C)C(=O)N5CCC[C@H]5C(=O)N(C)CC(=O)N(C)[C@@H](C(C)C)C(=O)O[C@@H]4C)c3nc-2c(C(=O)N[C@@H]2C(=O)N[C@H](C(C)C)C(=O)N3CCC[C@H]3C(=O)N(C)CC(=O)N(C)[C@@H](C(C)C)C(=O)O[C@@H]2C)c(N)c1=O` [DACTINOMYCIN] (I: T[dV]P[Sar][NMeV] / II: T[dV]P[Sar][NMeV]; ester I:1-I:C, II:1-II:C; linker I:N-II:N via Actinocin(9to1)), the Activity result in series [6] is “inhibitor [+]”.
On to `CNCCCN1c2ccccc2CCc2ccccc21` [DESIPRAMINE], for which the Activity result in [7] is “inhibitor [+]”.
Consider `O=c1c(O)c(-c2ccccc2)oc2cc(O)cc(O)c12` [GALANGIN], for which the Activity result in series [8] is “inhibitor [+]”.
With `O=c1c(-c2ccc(O)cc2)coc2cc(O)cc(O)c12` [GENISTEIN], in series [9], the Activity result was “inhibitor [+]”.
As to `CC(C)C[C@@H](NC(=O)[C@H](C)NC(=O)CNC(=O)[C@@H](NC=O)C(C)C)C(=O)N[C@@H](C)C(=O)N[C@@H](C(=O)N[C@H](C(=O)N[C@@H](C(=O)N[C@@H](Cc1c[nH]c2ccccc12)C(=O)N[C@H](CC(C)C)C(=O)N[C@@H](Cc1c[nH]c2ccccc12)C(=O)N[C@H](CC(C)C)C(=O)N[C@@H](Cc1c[nH]c2ccccc12)C(=O)N[C@H](CC(C)C)C(=O)N[C@@H](Cc1c[nH]c2ccccc12)C(=O)NCCO)C(C)C)C(C)C)C(C)C` [GRAMICIDIN D] (For-VGA[dL]A[dV]V[dV]W[dL]W[dL]W[dL]W-NHCH2CH2OH), in [10], the Activity entry is “is not an inhibitor [-]”.
With `O=C(CCCN1CCC(O)(c2ccc(Cl)cc2)CC1)c1ccc(F)cc1` [HALOPERIDOL], in [11], the Activity result was “inhibitor [+]”.
For `CN(C)CCCN1c2ccccc2CCc2ccccc21` [IMIPRAMINE], the Activity entry in series [12] is “inhibitor [+]”.
For `CCN(CC)CC(=O)Nc1c(C)cccc1C` [LIDOCAINE], the Activity result in [13] is “is not an inhibitor [-]”.
For `COCC(=O)O[C@]1(CCN(C)CCCc2nc3ccccc3[nH]2)CCc2cc(F)ccc2[C@@H]1C(C)C` [MIBEFRADIL], the Activity result in series [14] is “inhibitor [+]”.
Consider `CO[C@@]12[C@H](COC(N)=O)C3=C(C(=O)C(C)=C(N)C3=O)N1C[C@@H]1N[C@@H]12` [MITOMYCIN], for which the Activity entry in series [15] was “is not an inhibitor [-]”.
